{"source": "patent US11773086B2", "about": "“Fungal modulators” (TRUSTEES OF BOSTON UNIVERSITY, priority 2020, dated 2023)"}
{"tested_on": "FLC-resistant Candida auris", "assay": "Checkerboard (dose-response matrix) with fluconazole, FICI", "format": "cell-based", "conditions": "fractional inhibitory concentration index for enhancement of FLC activity in FLC-resistant Candida auris; <0.5 strong synergy, 2 = no synergy", "experimental": "Generally, the synergy is measured by determining the fractional inhibitory concentration (FIC) value of the combination. […] FIC values for both agents in a particular square/well are calculated in this way followed by determination of the FIC index (sum of the FICs of each agent in the particular square/well).\nCompound potency was assessed alone by dose response assays or in combination with another compound by dose-response matrixes in 96-well plates, or 384-well, flat-bottom, microtiter plates (Corning) as previously described. Plates were incubated at 30° C. for the indicated time period. Growth was quantified by measuring OD600 and corrected for medium background. All strains were assessed in biological duplicate experiments with technical duplicates. Growth was normalized to untreated controls and plotted as a heat map using Java TreeView 1.1.6r4. For dose-response matrixes fractional inhibitory concentration index at 90% growth inhibition (FICI90) was calculated as previously described. The fluconazole Etest susceptibility assay was performed as previously described. Briefly, 200 μL of 5×10^6 cells/mL were plated on YPD agar (1%) plates with either with 50 μM azoffluxin or containing DMSO."}
{"smiles": "CC(C)C[C@@H](O)COc1cc2c(cc1C1(c3cc4c(cc3OC[C@H](O)CC(C)C)OCO4)C(=O)Nc3ccc(F)cc31)OCO2", "note": "[CMLD013622, 5-fluoro-3,3-bis(6-(((R)-2-hydroxy-4-methylpentyl)oxy)benzo[d][1,3]dioxol-5-yl)indolin-2-one]", "FICI": 0.130}
{"smiles": "CCC[C@@H](O)COc1cc2c(cc1C1(c3cc4c(cc3OCC)OCO4)C(=O)Nc3c(F)cccc31)OCO2", "note": "(stereo partly drawn) [CMLD013655, 3-(6-ethoxy-2H-1,3-benzodioxol-5-yl)-7-fluoro-3-(6-(((2R)-2-hydroxypentyl)oxy)-2H-1,3-benzodioxol-5-yl)-2,3-dihydro-1H-indol-2-one]", "FICI": 0.113}
{"smiles": "C=CCC[C@@H](O)COc1cc2c(cc1C1(c3cc4c(cc3OC[C@H](O)CCC=C)OCO4)C(=O)Nc3c(F)cccc31)OCO2", "note": "[CMLD012449, 7-fluoro-3,3-bis(6-(((R)-2-hydroxyhex-5-en-1-yl)oxy)benzo[d][1,3]dioxol-5-yl)indolin-2-one]", "FICI": 0.113}
{"smiles": "CC[C@@H](O)COc1cc2c(cc1C1(c3cc4c(cc3OC[C@H](O)CC)OCO4)C(=O)Nc3cc(F)ccc31)OCO2", "note": "[CMLD012394, 6-fluoro-3,3-bis(6-((R)-2-hydroxybutoxy)benzo[d][1,3]dioxol-5-yl)indolin-2-one]", "FICI": 0.266}
{"smiles": "CC(C)C[C@@H](O)COc1cc2c(cc1C1(c3cc4c(cc3OC[C@H](O)CC(C)C)OCO4)C(=O)Nc3ccc(Br)cc31)OCO2", "note": "[CMLD013650, 5-bromo-3,3-bis(6-(((2R)-2-hydroxy-4-methylpentyl)oxy)-2H-1,3-benzodioxol-5-yl)-2,3-dihydro-1H-indol-2-one]", "FICI": 0.300}
{"smiles": "C=CCC[C@@H](O)COc1cc2c(cc1C1(c3cc4c(cc3OC[C@H](O)CCC=C)OCO4)C(=O)Nc3ccc(F)cc31)OCO2", "note": "[CMLD012450, 5-fluoro-3,3-bis(6-(((R)-2-hydroxyhex-5-en-1-yl)oxy)benzo[d][1,3]dioxol-5-yl)indolin-2-one]", "FICI": 0.266}
{"smiles": "O=C1Nc2ccccc2C1(c1ccc(O)cc1)c1ccc(O)cc1", "note": "[Oxyphenisatin, oxyphenisatin, reference compound]", "FICI": 2}
{"smiles": "C=C(C)C[C@@H](O)COc1cc2c(cc1C1(c3cc4c(cc3OC[C@H](O)CC(=C)C)OCO4)C(=O)Nc3c(F)cccc31)OCO2", "note": "[CMLD012436, 7-fluoro-3,3-bis(6-(((R)-2-hydroxy-4-methylpent-4-en-1-yl)oxy)benzo[d][1,3]dioxol-5-yl)indolin-2-one]", "FICI": 0.175}
{"smiles": "CC(C)C[C@@H](O)COc1cc2c(cc1C1(c3cc4c(cc3OC[C@H](O)CC(C)C)OCO4)C(=O)Nc3cc(F)ccc31)OCO2", "note": "[CMLD012393, 6-fluoro-3,3-bis(6-(((R)-2-hydroxy-4-methylpentyl)oxy)benzo[d][1,3]dioxol-5-yl)indolin-2-one]", "FICI": 0.130}
{"smiles": "CCC[C@@H](O)COc1cc2c(cc1C1(c3cc4c(cc3OC[C@H](O)CCC)OCO4)C(=O)Nc3ccc(F)cc31)OCO2", "note": "[CMLD013619, 5-fluoro-3,3-bis(6-(((R)-2-hydroxypentyl)oxy)benzo[d][1,3]dioxol-5-yl)indolin-2-one]", "FICI": 0.255}
{"smiles": "CC(C)C[C@@H](O)COc1cc2c(cc1C1(c3cc4c(cc3OC[C@H](O)CC(C)C)OCCO4)C(=O)Nc3c(F)cccc31)OCCO2", "note": "[CMLD013654, 7-fluoro-3,3-bis(7-(((2R)-2-hydroxy-4-methylpentyl)oxy)-2,3-dihydro-1,4-benzodioxin-6-yl)-2,3-dihydro-1H-indol-2-one]", "FICI": 0.255}
{"smiles": "CC(C)(C)C[C@@H](O)COc1cc2c(cc1C1(c3cc4c(cc3OC[C@H](O)CC(C)(C)C)OCO4)C(=O)Nc3cc(Br)ccc31)OCO2", "note": "[CMLD012446, 6-bromo-3,3-bis(6-(((R)-2-hydroxy-4,4-dimethylpentyl)oxy)benzo[d][1,3]dioxol-5-yl)indolin-2-one]", "FICI": 0.068}
{"smiles": "C=CCC[C@@H](O)COc1cc2c(cc1C1(c3cc4c(cc3OC[C@H](O)CCC=C)OCO4)C(=O)Nc3cccc(Br)c31)OCO2", "note": "[CMLD012453, 4-bromo-3,3-bis(6-(((R)-2-hydroxyhex-5-en-1-yl)oxy)benzo[d][1,3]dioxol-5-yl)indolin-2-one]", "FICI": 0.257}
{"smiles": "CC(C)C[C@@H](O)COc1cc2c(cc1C1(c3cc4c(cc3OC[C@H](O)CC(C)C)OCCO4)C(=O)Nc3cc(F)ccc31)OCCO2", "note": "[CMLD013648, 6-fluoro-3,3-bis(7-(((2R)-2-hydroxy-4-methylpentyl)oxy)-2,3-dihydro-1,4-benzodioxin-6-yl)-2,3-dihydro-1H-indol-2-one]", "FICI": 0.255}
{"smiles": "CC(C)(C)C[C@@H](O)COc1cc2c(cc1C1(c3cc4c(cc3OC[C@H](O)CC(C)(C)C)OCO4)C(=O)Nc3ccc(Br)cc31)OCO2", "note": "[CMLD013652, 5-bromo-3,3-bis(6-(((2R)-2-hydroxy-4,4-dimethylpentyl)oxy)-2H-1,3-benzodioxol-5-yl)-2,3-dihydro-1H-indol-2-one]", "FICI": 0.175}
{"smiles": "C=CCC[C@@H](O)COc1cc2c(cc1C1(c3cc4c(cc3OC[C@H](O)CCC=C)OCO4)C(=O)Nc3cc(F)ccc31)OCO2", "note": "[CMLD012447, 6-fluoro-3,3-bis(6-(((R)-2-hydroxyhex-5-en-1-yl)oxy)benzo[d][1,3]dioxol-5-yl)indolin-2-one]", "FICI": 0.130}
{"smiles": "CC(C)(C)C[C@@H](O)COc1cc2c(cc1C1(c3cc4c(cc3OC[C@H](O)CC(C)(C)C)OCO4)C(=O)Nc3cc(F)ccc31)OCO2", "note": "[CMLD012443, 6-fluoro-3,3-bis(6-(((R)-2-hydroxy-4,4-dimethylpentyl)oxy)benzo[d][1,3]dioxol-5-yl)indolin-2-one]", "FICI": 0.068}
{"smiles": "C=CC[C@@H](O)COc1cc2c(cc1C1(c3cc4c(cc3OC[C@H](O)CC=C)OCO4)C(=O)Nc3cc(F)ccc31)OCO2", "note": "[CMLD012400, 6-fluoro-3,3-bis(6-(((R)-2-hydroxypent-4-en-1-yl)oxy)benzo[d][1,3]dioxol-5-yl)indolin-2-one]", "FICI": 0.130}
{"smiles": "C=C(C)C[C@@H](O)COc1cc2c(cc1C1(c3cc4c(cc3OCC)OCO4)C(=O)Nc3cc(F)ccc31)OCO2", "note": "(stereo partly drawn) [RT-162S-015, 3-(6-ethoxybenzo[d][1,3]dioxol-5-yl)-6-fluoro-3-(6-(((R)-2-hydroxy-4-methylpent-4-en-1-yl)oxy)benzo[d][1,3]dioxol-5-yl)indolin-2-one]", "FICI": 0.133}
{"smiles": "CCC[C@@H](O)COc1cc2c(cc1C1(c3cc4c(cc3OC[C@H](O)CCC)OCO4)C(=O)Nc3c(F)cccc31)OCO2", "note": "[CMLD012440, 7-fluoro-3,3-bis(6-(((R)-2-hydroxypentyl)oxy)benzo[d][1,3]dioxol-5-yl)indolin-2-one]", "FICI": 0.058}
{"smiles": "C=CCC[C@@H](O)COc1cc2c(cc1C1(c3cc4c(cc3OC[C@H](O)CCC=C)OCO4)C(=O)Nc3cc(Br)ccc31)OCO2", "note": "[CMLD012452, 6-bromo-3,3-bis(6-(((R)-2-hydroxyhex-5-en-1-yl)oxy)benzo[d][1,3]dioxol-5-yl)indolin-2-one]", "FICI": 0.266}
{"smiles": "CC(C)C[C@@H](O)COc1cc2c(cc1C1(c3cc4c(cc3OC[C@H](O)CC(C)C)OCO4)C(=O)Nc3c(F)cccc31)OCO2", "note": "[CMLD013623, 7-fluoro-3,3-bis(6-(((R)-2-hydroxy-4-methylpentyl)oxy)benzo[d][1,3]dioxol-5-yl)indolin-2-one]", "FICI": 0.036}
{"smiles": "CC(C)(C)C[C@@H](O)COc1cc2c(cc1C1(c3cc4c(cc3OC[C@H](O)CC(C)(C)C)OCO4)C(=O)Nc3c(F)cccc31)OCO2", "note": "[CMLD013624, 7-fluoro-3,3-bis(6-(((R)-2-hydroxy-4,4-dimethylpentyl)oxy)benzo[d][1,3]dioxol-5-yl)indolin-2-one]", "FICI": 0.068}
{"smiles": "CC(C)(C)C[C@@H](O)COc1cc2c(cc1C1(c3cc4c(cc3OC[C@H](O)CC(C)(C)C)OCO4)C(=O)Nc3ccc(F)cc31)OCO2", "note": "[CMLD012444, 5-fluoro-3,3-bis(6-(((R)-2-hydroxy-4,4-dimethylpentyl)oxy)benzo[d][1,3]dioxol-5-yl)indolin-2-one]", "FICI": 0.068}
{"smiles": "C=CC[C@@H](O)COc1cc2c(cc1C1(c3cc4c(cc3OC[C@H](O)CC=C)OCO4)C(=O)Nc3c(F)cccc31)OCO2", "note": "[CMLD012402, 7-fluoro-3,3-bis(6-(((R)-2-hydroxypent-4-en-1-yl)oxy)benzo[d][1,3]dioxol-5-yl)indolin-2-one]", "FICI": 0.113}
{"smiles": "CC[C@@H](O)COc1cc2c(cc1C1(c3cc4c(cc3OC[C@H](O)CC)OCO4)C(=O)Nc3c(F)cccc31)OCO2", "note": "[CMLD012399, 7-fluoro-3,3-bis(6-((R)-2-hydroxybutoxy)benzo[d][1,3]dioxol-5-yl)indolin-2-one]", "FICI": 0.500}
{"smiles": "CC(C)C[C@@H](O)COc1cc2c(cc1C1(c3cc4c(cc3OC[C@H](O)CC(C)C)OCO4)C(=O)Nc3cc(Br)ccc31)OCO2", "note": "[CMLD013651, 6-bromo-3,3-bis(6-(((2R)-2-hydroxy-4-methylpentyl)oxy)-2H-1,3-benzodioxol-5-yl)-2,3-dihydro-1H-indol-2-one]", "FICI": 0.130}
{"smiles": "CCC[C@@H](O)COc1cc2c(cc1C1(c3cc4c(cc3OC[C@H](O)CCC)OCO4)C(=O)Nc3cc(F)ccc31)OCO2", "note": "[CMLD012439, 6-fluoro-3,3-bis(6-(((R)-2-hydroxypentyl)oxy)benzo[d][1,3]dioxol-5-yl)indolin-2-one]", "FICI": 0.130}
